Test results reported in ChEMBL document CHEMBL1156824, “Physicochemical space for optimum oral bioavailability: contribution of human intestinal absorption and first-pass elimination” (J Med Chem, 2010).

Tests used:
Homo sapiens = species: Homo sapiens; assay: Hepatic clearance in human; details: in vivo
clinical = details: human, in vivo

| Structure (SMILES) | CL (Homo sapiens) [mL/min/kg] | CL renal (clinical) [mL/min/kg] |
| --- | --- | --- |
| Cc1nnc(SCC2=C(C(=O)O)N3C(=O)[C@@H](NC(=O)[C@H](O)c4ccccc4)[C@H]3SC2)s1 | 0.2 | 2.4 |
| COc1ccccc1N1CCN(CCCNc2cc(=O)n(C)c(=O)n2C)CC1 | 2.6 | 0.5 |
| C[C@H]1O[C@H](O[C@H]2[C@H](O)[C@@H](O)[C@@H](O[C@H]3[C@H](O)[C@@H](O)C(O)O[C@@H]3CO)O[C@@H]2CO)[C@H](O)[C@@H](O)[C@@H]1N[C@H]1C=C(CO)[C@@H](O)[C@H](O)[C@H]1O (some centres not stated) [ACARBOSE] | 0.1 | 2.1 |
| C=CCN1CCCC1CNC(=O)c1cc2[nH]nnc2cc1OC (configuration not stated) [ALIZAPRIDE] | 1.3 | 5.3 |
| CN(C)CCC=C1c2ccccc2CCc2ccccc21 [AMITRIPTYLINE] | 6 | 0.1 |
| Cc1cc(=O)n(-c2ccccc2)n1C [ANTIPYRINE] | 0.6 | 0.0243 |
| CNCC[C@@H](Oc1ccccc1C)c1ccccc1 [ATOMOXETINE] | 9 | 0.3 |
| O=C1CN=C(c2ccccn2)c2cc(Br)ccc2N1 [BROMAZEPAM] | 0.3 | 0.3 |
| CCCCNc1cc(C(=O)O)cc(S(N)(=O)=O)c1Oc1ccccc1 [BUMETANIDE] | 1 | 1.5 |
| CCCCN1CCCCC1C(=O)Nc1c(C)cccc1C (configuration not stated) [BUPIVACAINE] | 4.2 | 0.1 |
| CS(=O)(=O)OCCCCOS(C)(=O)=O [BUSULFAN] | 2.4 | 0.024 |
| Cn1c(=O)c2c(ncn2C)n(C)c1=O [CAFFEINE] | 1.4 | 0.017 |
| O=C(O)CCCc1ccc(N(CCCl)CCCl)cc1 [CHLORAMBUCIL] | 2.8 | 0.028 |
| O=C(N[C@H](CO)[C@H](O)c1ccc([N+](=O)[O-])cc1)C(Cl)Cl [CHLORAMPHENICOL] | 2.2 | 0.2 |
| CN(C)CCC(c1ccc(Cl)cc1)c1ccccn1 (configuration not stated) [CHLORPHENIRAMINE] | 2.1 | 0.4 |
| CN(C)CCCN1c2ccccc2Sc2ccc(Cl)cc21 [CHLORPROMAZINE] | 15.8 | 0.2 |
| CCCNC(=O)NS(=O)(=O)c1ccc(Cl)cc1 [CHLORPROPAMIDE] | 0.036 | 0.009 |
| NS(=O)(=O)c1cc(C2(O)NC(=O)c3ccccc32)ccc1Cl (configuration not stated) [CHLORTHALIDONE] | 0.5 | 1 |
| COc1ccc([C@]2(C#N)CC[C@@H](C(=O)O)CC2)cc1OC1CCCC1 [CILOMILAST] | 0.5 | 0.005 |
| CN(C)CCCC1(c2ccc(F)cc2)OCc2cc(C#N)ccc21 (configuration not stated) [CITALOPRAM] | 3.8 | 0.5 |

| Structure (SMILES) | CL (Homo sapiens) [mL/min/kg] | CL renal (clinical) [mL/min/kg] |
| --- | --- | --- |
| CC[C@H]1OC(=O)[C@H](C)[C@@H](O[C@H]2C[C@@](C)(OC)[C@@H](O)[C@H](C)O2)[C@H](C)[C@@H](O[C@@H]2O[C@H](C)C[C@H](N(C)C)[C@H]2O)[C@](C)(OC)C[C@@H](C)C(=O)[C@H](C)[C@@H](O)[C@]1(C)O [CLARITHROMYCIN] | 4.7 | 2.6 |
| CCC[C@@H]1C[C@@H](C(=O)N[C@@H]([C@H]2O[C@H](SC)[C@H](O)[C@@H](O)[C@H]2O)[C@H](C)Cl)N(C)C1 [CLINDAMYCIN] | 3.9 | 0.6 |
| O=C1CN=C(c2ccccc2Cl)c2cc([N+](=O)[O-])ccc2N1 [CLONAZEPAM] | 0.9 | 0.0088 |
| CN1C(=O)CC[C@H]1c1cccnc1 [COTININE] | 0.8 | 0.1 |
| C[C@@H]1C[C@H]2[C@@H]3CCC4=CC(=O)C=C[C@]4(C)[C@@]3(F)[C@@H](O)C[C@]2(C)[C@@]1(O)C(=O)CO [DEXAMETHASONE] | 3.2 | 0.1 |
| CCCCCN(CCCOC)C(=O)[C@@H](CCC(=O)O)NC(=O)c1ccc(Cl)c(Cl)c1 [DEXLOXIGLUMIDE] | 3.3 | 0.4 |
| CC1=NS(=O)(=O)c2cc(Cl)ccc2N1 [DIAZOXIDE] |  | 0.1 |
| O=c1[nH]c2ccccc2n1CCCN1CCC(n2c(=O)[nH]c3cc(Cl)ccc32)CC1 [DOMPERIDONE] | 9.5 | 0.038 |
| CCN1CC(CCN2CCOCC2)C(c2ccccc2)(c2ccccc2)C1=O (configuration not stated) [DOXAPRAM] | 5 | 0.3 |
| C[C@H]1c2cccc(O)c2C(=O)C2=C(O)[C@]3(O)C(=O)C(C(N)=O)=C(O)[C@@H](N(C)C)[C@@H]3[C@@H](O)[C@@H]21.O [DOXYCYCLINE] | 0.3 | 0.2 |
| Cn1c(=O)c2c(ncn2CC(O)CO)n(C)c1=O (configuration not stated) [DYPHYLLINE] | 0.8 | 4 |
| CC(C)(C)NC(=O)[C@H]1CC[C@H]2[C@@H]3CC[C@H]4NC(=O)C=C[C@]4(C)[C@H]3CC[C@]12C [FINASTERIDE] |  | 0.024 |
| OC(Cn1cncn1)(Cn1cncn1)c1ccc(F)cc1F [FLUCONAZOLE] | 0.1 | 0.2 |
| CCOC(=O)c1ncn2c1CN(C)C(=O)c1cc(F)ccc1-2 [FLUMAZENIL] | 16 | 0.032 |
| CCOC(=O)Nc1ccc(NCc2ccc(F)cc2)nc1N [FLUPIRTINE] | 1.3 | 0.3 |
| CC(=O)Nc1ccc(OCC(O)CNC(C)C)cc1 (configuration not stated) [PRACTOLOL] | 0.3 |  |
| CC[C@H](C)C(=O)O[C@H]1C[C@H](O)C=C2C=C[C@H](C)[C@H](CC[C@@H](O)C[C@@H](O)CC(=O)O)[C@H]21 [PRAVASTATIN] | 7.7 |  |
| CC(C)NCC(O)COc1cccc2ccccc12 (configuration not stated) [PROPRANOLOL] | 10.8 |  |
| CN(C)C(=O)Oc1ccc[n+](C)c1 [PYRIDOSTIGMINE] | 2.4 |  |
| COCCCOc1ccnc(C[S+]([O-])c2nc3ccccc3[nH]2)c1C (configuration not stated) [RABEPRAZOLE] | 4 |  |

| Structure (SMILES) | CL (Homo sapiens) [mL/min/kg] | CL renal (clinical) [mL/min/kg] |
| --- | --- | --- |
| CO[C@H]1/C=C/O[C@@]2(C)Oc3c(C)c(O)c4c(O)c(c(/C=N/N5CCN(C)CC5)c(O)c4c3C2=O)NC(=O)/C(C)=C\C=C\[C@H](C)[C@H](O)[C@@H](C)[C@@H](O)[C@@H](C)[C@H](OC(C)=O)[C@@H]1C [RIFAMPIN] | 1.3 |  |
| O=P(O)(O)C(O)(Cc1cccnc1)P(=O)(O)O [RISEDRONIC ACID] | 0.2 |  |
| CN(CCOc1ccc(CC2SC(=O)NC2=O)cc1)c1ccccn1 (configuration not stated) [ROSIGLITAZONE] | 0.7 |  |
| C#CCN(C)[C@H](C)Cc1ccccc1 [SELEGILINE] | 19.8 |  |
| CCN(CC)CCNC(=O)c1ccc(NS(C)(=O)=O)cc1 [SEMATILIDE] | 0.2 |  |
| N[C@@H]1CN(c2c(F)cc3c(=O)c(C(=O)O)cn([C@@H]4C[C@@H]4F)c3c2Cl)CC12CC2 [SITAFLOXACIN ANHYDROUS] | 0.9 |  |
| N[C@@H](CC(=O)N1CCn2c(nnc2C(F)(F)F)C1)Cc1cc(F)c(F)cc1F [SITAGLIPTIN] | 1.3 |  |
| C=CC[C@@H]1/C=C(\C)C[C@H](C)C[C@H](OC)[C@H]2O[C@@](O)(C(=O)C(=O)N3CCCC[C@H]3C(=O)O[C@H](/C(C)=C/[C@@H]3CC[C@@H](O)[C@H](OC)C3)[C@H](C)[C@@H](O)CC1=O)[C@H](C)C[C@@H]2OC [TACROLIMUS ANHYDROUS] | 0.7 |  |
| CC(C)(C)NCC(O)COc1ccc(NC(=O)NC2CCCCC2)cc1 (configuration not stated) [TALINOLOL] | 2.3 |  |
| CC(C)(C)NCC(O)c1cc(O)cc(O)c1 (configuration not stated) [TERBUTALINE] | 1.2 |  |
| CN(C)[C@@H]1C(O)=C(C(N)=O)C(=O)[C@@]2(O)C(O)=C3C(=O)c4c(O)cccc4[C@@](C)(O)[C@H]3C[C@@H]12 [TETRACYCLINE] | 0.6 |  |
| CC(C)(C)NC[C@H](O)COc1nsnc1N1CCOCC1 [TIMOLOL] | 7.1 |  |
| Cc1cccc(C)c1NC(=O)C(C)N (configuration not stated) [TOCAINIDE] | 1.4 |  |
| Cc1ccc(O)c([C@H](CCN(C(C)C)C(C)C)c2ccccc2)c1 [TOLTERODINE] | 8.4 |  |
| CCCC(CCC)C(=O)O [VALPROIC ACID] |  | 0.0029 |
| CN[C@H](CC(C)C)C(=O)N[C@H]1C(=O)N[C@@H](CC(N)=O)C(=O)N[C@H]2C(=O)N[C@H]3C(=O)N[C@H](C(=O)N[C@H](C(=O)O)c4cc(O)cc(O)c4-c4cc3ccc4O)[C@H](O)c3ccc(c(Cl)c3)Oc3cc2cc(c3O[C@@H]2O[C@H](CO)[C@@H](O)[C@H](O)[C@H]2O[C@H]2C[C@](C)(N)[C@H](O)[C@H](C)O2)Oc2ccc(cc2Cl)[C@H]1O [VANCOMYCIN] | 0.3 |  |
| CC[C@]1(O)C[C@@H]2CN(CCc3c([nH]c4ccccc34)[C@@](C(=O)OC)(c3cc4c(cc3OC)N(C)[C@H]3[C@@](O)(C(=O)OC)[C@H](OC(C)=O)[C@]5(CC)C=CCN6CC[C@]43[C@@H]65)C2)C1 [VINBLASTINE] | 0.5 |  |
| CN(C)CCc1c[nH]c2ccc(C[C@H]3COC(=O)N3)cc12 [ZOLMITRIPTAN] | 4.5 |  |
| CN1CCN(C(=O)OC2c3nccnc3C(=O)N2c2ccc(Cl)cn2)CC1 (configuration not stated) [ZOPICLONE] | 3.2 |  |
